The values that follow come from US20200239398A1, “METHYLENE-CYCLOALKYLACETATE DERIVATIVES AND THEIR USE IN TREATMENT OF NEUROTROPIC CONDITIONS” (Yissum Research Development Company of The Hebrew …, priority 2018, published 2020).

The assay concerns the target T1, N-methyl-D-aspartate (NMDA) Glutamate Receptor 1A/2B (NMDAR (1A/2B)) (Homo sapiens, UniProt Q05586+Q13224).
T1 construct: DiscoverX (SAFETYscan contract panel)
The experiment in a line: SAFETYscan NMDAR (1A/2B) Ion channel. Conditions: Blocker mode; reference compound; read-out: RC50 (the source's name). In kind it is cell-based.

T1 sequence (Q13224 27-1484, other chains not shown): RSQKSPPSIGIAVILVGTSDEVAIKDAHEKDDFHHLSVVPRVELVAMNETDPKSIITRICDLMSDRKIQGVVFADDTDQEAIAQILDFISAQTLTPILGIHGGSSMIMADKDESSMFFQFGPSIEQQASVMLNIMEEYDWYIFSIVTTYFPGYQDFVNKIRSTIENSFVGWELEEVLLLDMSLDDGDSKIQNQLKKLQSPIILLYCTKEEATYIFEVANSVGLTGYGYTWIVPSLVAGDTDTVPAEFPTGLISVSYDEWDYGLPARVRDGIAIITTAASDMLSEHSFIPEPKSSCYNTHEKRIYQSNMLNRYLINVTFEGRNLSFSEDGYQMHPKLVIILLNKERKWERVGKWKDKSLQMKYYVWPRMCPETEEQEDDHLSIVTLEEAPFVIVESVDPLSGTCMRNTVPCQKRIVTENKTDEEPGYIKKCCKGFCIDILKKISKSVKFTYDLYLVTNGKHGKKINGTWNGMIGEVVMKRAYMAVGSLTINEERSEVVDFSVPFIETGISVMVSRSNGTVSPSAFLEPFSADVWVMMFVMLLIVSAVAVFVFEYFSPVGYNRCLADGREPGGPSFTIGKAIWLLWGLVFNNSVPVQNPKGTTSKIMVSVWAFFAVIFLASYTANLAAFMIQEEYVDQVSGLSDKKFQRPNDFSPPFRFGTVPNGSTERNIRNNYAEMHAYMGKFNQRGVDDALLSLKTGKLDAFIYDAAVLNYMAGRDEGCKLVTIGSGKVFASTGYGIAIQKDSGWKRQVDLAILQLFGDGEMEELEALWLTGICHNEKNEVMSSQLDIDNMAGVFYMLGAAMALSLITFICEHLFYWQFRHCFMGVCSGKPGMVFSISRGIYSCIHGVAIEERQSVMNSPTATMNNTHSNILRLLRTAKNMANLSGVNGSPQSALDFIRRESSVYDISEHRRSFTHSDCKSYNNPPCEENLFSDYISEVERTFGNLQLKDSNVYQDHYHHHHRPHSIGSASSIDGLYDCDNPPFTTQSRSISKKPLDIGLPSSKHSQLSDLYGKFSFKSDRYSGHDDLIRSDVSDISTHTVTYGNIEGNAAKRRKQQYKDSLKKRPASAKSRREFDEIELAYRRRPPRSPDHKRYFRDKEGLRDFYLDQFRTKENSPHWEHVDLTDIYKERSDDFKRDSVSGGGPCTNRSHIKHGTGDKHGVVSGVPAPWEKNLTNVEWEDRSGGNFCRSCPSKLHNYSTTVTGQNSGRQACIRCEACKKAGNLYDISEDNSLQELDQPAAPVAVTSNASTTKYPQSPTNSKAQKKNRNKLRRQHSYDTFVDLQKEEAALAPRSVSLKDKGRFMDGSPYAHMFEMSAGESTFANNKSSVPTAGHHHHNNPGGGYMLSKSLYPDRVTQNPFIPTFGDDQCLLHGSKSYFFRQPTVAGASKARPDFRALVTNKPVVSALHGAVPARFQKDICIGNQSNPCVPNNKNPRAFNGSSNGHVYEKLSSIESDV

In the case of `C[C@]12N[C@H](Cc3ccccc31)c1ccccc12` [MK 801, reference compound], the IC50 came out at 52.8 nM.
